Results from ChEMBL document CHEMBL5370559, “Plasmodium-Resistant Indole Diterpenoid Biosynthesis Gene Cluster Derived from Aspergillus oryzae Was Activated by Exogenous P450 Gene Ast B” (J Nat Prod, 2023).

Assays:
Plasmodium falciparum [1] = assay: Antiplasmodial activity against erythrocytic stage chloroquine sensitive Plasmodium falciparum 3D7 assessed as parasitic growth inhibition measured after 3 days by HRP2-ELISA assay; format: functional, organism-based; conditions: 3D7, 72 h
Plasmodium falciparum [2] = assay: Antiplasmodial activity against erythrocytic stage chloroquine resistant Plasmodium falciparum dD2 assessed as parasitic growth inhibition measured after 3 days by HRP2-ELISA assay; format: functional, organism-based; conditions: dD2, 72 h

| Structure (SMILES) | IC50 (Plasmodium falciparum [1]) [µM] | IC50 (Plasmodium falciparum [2]) [µM] |
| --- | --- | --- |
| CC(C)(O)[C@H]1O[C@@]2(O)CC[C@@]3(C)[C@@H](CC[C@H]4Cc5c([nH]c6ccccc56)[C@@]43C)C2=CC1=O | 1.1 | 153 |
| CC(C)C1=C(c2c[nH]c3ccccc23)[C@@H]2[C@H](C)C[C@@H](O)[C@@]3(C)[C@H](C)CC[C@@H](O)[C@@]23CC1 | 52 | – |
| C[C@H](CO)C1=C(c2c[nH]c3ccccc23)[C@@H]2[C@H](C)C[C@@H](O)[C@@]3(C)[C@H](C)CC[C@@H](O)[C@@]23CC1 | 26 | – |
| CC1=CC[C@@H](O)[C@@]23CC=C(C(C)C)[C@H](c4c[nH]c5ccccc45)[C@@H]2[C@H](C)CC[C@@]13C | 20 | – |
| C=CC(C)(C)c1cccc2[nH]c3c(c12)C[C@@H]1CC[C@H]2C4=CC(=O)[C@@H](C(C)(C)O)O[C@H]4CC[C@]2(C)[C@@]31C | 0.84 | 41 |
| CC(C)C1=CC[C@]23[C@@H]([C@H](C)CC[C@@]2(C)[C@H](C)CC[C@H]3O)[C@H]1c1c[nH]c2ccccc12 | 31 | – |
| C[C@@H]1CC[C@@]2(C)[C@H](C)CC[C@@H](O)[C@]23CC[C@@H](C(C)(C)O)[C@H](c2c[nH]c4ccccc24)[C@H]13 | > 200 | – |
| Cc1cc2[nH]c3ccccc3c2c2c1CC[C@@]13[C@H](O)CC[C@@H](C)[C@]1(C)[C@H](O)C[C@@H](C)[C@@H]23 | 49 | – |
| CC(C)C1=C(c2c[nH]c3ccccc23)[C@@H]2[C@H](C)CC[C@@]3(C)[C@H](C)CC[C@@H](O)[C@@]23CC1 | 2.8 | > 200 |
| C=CC(C)(C)c1cccc2[nH]c3c(c12)C[C@@H]1CC(=O)[C@@]2(O)C4=CC(=O)[C@@H](C(C)(C)O)O[C@]4(O)CC[C@]2(C)[C@@]31C | 57 | – |
| C=CC(C)(C)c1ccc2[nH]c3c(c2c1)C[C@@H]1CC[C@H]2C4=CC(=O)[C@@H](C(C)(C)O)O[C@H]4CC[C@]2(C)[C@@]31C | 1.3 | 96 |
| C=CC(C)(C)c1cccc2[nH]c3c(c12)C[C@@H]1CC[C@@]2(O)C4=CC(=O)[C@@H]5O[C@@]4(CC[C@]2(C)[C@@]31C)OC5(C)C [AFLATREME] | > 200 | – |
| C[C@@H]1CC[C@H]2[C@@H](C)C(=O)O[C@@H]3O[C@@]4(C)CC[C@@H]1[C@]32OO4 [ARTEMISININ] | 0.013 | 12 |
| CC(C)(O)[C@H]1O[C@H]2CC[C@@]3(C)[C@@H](CC[C@H]4Cc5c([nH]c6ccccc56)[C@@]43C)C2=CC1=O [DEHYDROXYPAXILLINE] | 0.9 | 69 |
| CC(C)=CCC[C@]1(C)[C@@H](O)CC[C@@]2(C)[C@H]1CC[C@H]1Cc3c([nH]c4ccccc34)[C@@]12C [EMINDOLE SB] | 2.9 | 34 |
| CC(C)(O)[C@@H]1CC[C@]2(C)[C@H](CC[C@@]3(C)[C@H]2CC[C@H]2Cc4c([nH]c5ccccc45)[C@@]23C)O1 [PASPALINE] | 2.2 | > 200 |
